Reference: patent US6001818A, “Use of 2',3'-dideoxycytidin-2'-ene (2'- ,3'-dideoxy-2'3'-didehydrocytidine) in treating patients infected with retroviruses” (Yale University, priority 1991, dated 1999)

What was measured:
[1] = tested on: retroviruses, e.g., murine leukemia virus and HTLV III/LAV virus; assay: Antiviral activity against retroviruses (general statement); format: cell-based; settings: murine leukemia virus and HTLV III/LAV virus (the AIDS virus)
[2] = tested on: Moloney Murine Leukemia Virus; assay: Antiviral screening against Moloney Murine Leukemia Virus (M-MuLV) by XC-assay (plaque reduction, SC-1 cells); format: cell-based; settings: SC1, SC-1/XC cells, Reed-Muench Method, read-out: ID50 (median inhibitory dose, virus plaque number)
Source text: Assay Procedure For Antiviral […] Against Moloney Murine Leukemia Virus (M-MuLV) By XC-Assay: The XC assay system is an indirect method for quantitation of murine-leukemia virus (MULV) originally described by […] et al, Proc. Nat'l. Acad Sci., 63, 753-758, (1969) and modified by W. Rowe et al, Virology, 42, 1136-1139, (1970). This test is based on the development of syncytial changes in the XC cell line when it is co-cultivated with mouse fibroblast cells (SC-1 cells) productively infected with MULV. The XC cell line was derived from a rat tumor induced by the Prague strain of Rous Sarcoma Virus (RSV) (J. Svobada et al, Folia Biol., 9, 77-81, […]). […] The following day, the cells were inoculated with 0.5 mL of a virus dilution containing 25 μg/mL of DEAE-dextran. […] The virus inoculum was then removed and replaced with 5mL of medium containing appropriate concentration of the test compound (two dishes/concentration). […] The medium (with or without the test compound) was changed at 48 hours. Five days after virus inoculation, the culture fluid was decanted and the cells were irradiated with a "GE" germicidal bulb for 30 seconds (60 ergs/mm^2 /sec UV-light). […] Virus plaques (i.e., areas of the cell sheet containing syncytial cells or focal masses of multinucleated giant cells) were counted using an inverted microscope.

HTLV-III/LAV [3] = assay: Inhibition of HTLV-III/LAV cytopathic effect in MT-2 cells (visual inspection); format: cell-based; settings: for % Apparent CPE (destroyed cells / total cells scored): MT-2 cells, day 7 post-infection
[4] = Water solubility (compared with AZT); format: physicochemical; settings: compared with 3'-azido-3'-deoxythymidine (AZT)
HTLV-III/LAV [5] = assay: Fluorescent assay of inhibition of HTLV-III/LAV in MT-2 cells (monoclonal antibody αp18); format: cell-based; settings: day 7 post-infection
MT-2 cells = assay: Viability of HTLV-III/LAV-infected MT-2 cells (trypan blue exclusion); format: cell-based; settings: Homo sapiens, MT2, 168 h, day 7 post-infection, read-out: % Viable Cells (cells that excluded trypan blue / cells scored)
HTLV-III/LAV virus = settings: Mitsuya and Broder, supra; cited from earlier work

Structure (SMILES)	antiviral activity against retroviruses [1]	IC50 [2] [µM]	% Apparent CPE (destroyed cells / total cells scored) (HTLV-III/LAV [3]; 0.5 μM) [%]	% Apparent CPE (destroyed cells / total cells scored) (HTLV-III/LAV [3]; 1.0 μM) [%]	effective dose compared with 2',3'-dideoxycytidine (HTLV-III/LAV [3]; HTLV-III/LAV infection in vitro, conclusion from Table 2 data)	antiviral activity against HTLV-III/LAV infection in vitro (HTLV-III/LAV [3]; conclusion from Table 2 data)	water solubility [4]	% Fluoresence (fluorescent cells / total cells scored) (HTLV-III/LAV [5]; 0.5 μM) [%]	% Fluoresence (fluorescent cells / total cells scored) (HTLV-III/LAV [5]; 1.0 μM) [%]	viability at 0.5 µM (MT-2 cells) [%]	viability at 1 µM (MT-2 cells) [%]	potency against HTLV-III/LAV virus in culture (HTLV-III/LAV virus)
Nc1ccn([C@H]2C=C[C@@H](CO)O2)c(=O)n1 [2',3'-dideoxycytidin-2'-ene]	has antiviral activity against retroviruses	3.7	90 ± 0.0	0.5 ± 0.5	effective dose falls in the same range as 2',3'-dideoxycytidine	has antiviral activity against the HTLV-III/LAV infection in vitro	much better water solubility than that of 3'-azido-3'-deoxythymidine (AZT)	5.6 ± 5.5	1.1 ± 0.1	22	90	
Nc1ccn([C@H]2CC[C@@H](CO)O2)c(=O)n1 [2',3'-dideoxycytidine, reference compound]		4	40 ± 10	1.0 ± 0.0				4.3 ± 0.3	0.2 ± 0.1	75	96	known potent compound against HTLV-III/LAV virus in culture
